For this series the following is noted: for Glass transition temperature: DSC; for Normal melting temperature: Crystal, DTA.

± gives the expanded uncertainty stated by the source.

These results are taken from the NIST ThermoML archive (doi:10.1016/j.jct.2016.05.023).

With `CC(=O)[O-].CCCCn1cc[n+](C)c1` [1-butyl-3-methylimidazolium acetate], the Glass transition temperature is -63 ± 2 °C.

Turning to `CCCCn1cc[n+](C)c1.[Cl-]` [1-butyl-3-methylimidazolium chloride], the Glass transition temperature is -52 ± 2 °C.

Consider `CC(=O)[O-].CCn1cc[n+](C)c1` [1-ethyl-3-methylimidazolium acetate], for which the Glass transition temperature was -71 ± 2 °C.

Turning to `CCn1cc[n+](C)c1.[Cl-]` [1-ethyl-3-methylimidazolium chloride], the Normal melting temperature was 84 ± 2 °C. In the case of `CCCCCCn1cc[n+](C)c1.[Cl-]` [1-hexyl-3-methylimidazolium chloride], the Glass transition temperature is -65 ± 2 °C. Turning to `CCCCCCCC[n+]1ccn(C)c1.[Cl-]` [1-methyl-3-octylimidazolium chloride], the Glass transition temperature was -74 ± 2 °C. For `CC(=O)[O-].CCCCCCCCCCCCCC[P+](CCCCCC)(CCCCCC)CCCCCC` [trihexyl(tetradecyl)phosphonium acetate], the Normal melting temperature was -67 ± 2 °C. As for `CCCCCCCCCCCCCC[P+](CCCCCC)(CCCCCC)CCCCCC.[Cl-]` [trihexyl(tetradecyl)phosphonium chloride], the Normal melting temperature is -66 ± 2 °C.
